Source: patent publication US10301357B2, “Therapeutics for the induction of endogenous steroidogenesis and methods associated with their identification” (THE ROYAL INSTITUTION FOR THE ADVANCEMENT OF …, priority 2013, dated 2019)
“Also recorded” adds a separate entry of the source. Square brackets hold non-standard residues; d marks the D form. Peptide text beside a SMILES is read from it. dPhe(4-Cl) = N[C@H](Cc1ccc(Cl)cc1)C(=O)O; d2Nal = N[C@H](Cc1ccc2ccccc2c1)C(=O)O; dCit = NC(=O)NCCC[C@@H](N)C(=O)O; d3Pal = N[C@H](Cc1cccnc1)C(=O)O

Tests used:
Sprague-Dawley rats = experiment: FGIN-1-27 bolus intratesticular injection, T levels after 2 hrs; assay type: in vivo, rat; details: for intratesticular T levels / plasma T levels: 8.5 μg bolus, 2 hrs
Protocol: (§1) Animals studies. Animals were handled according to protocols approved by the McGill University Animal Care and Use Committees. 60- to 64-day-old male Sprague-Dawley rats were purchased from Charles River, Senneville, QC. Rats were provided standard diets and tap water ad libitum and were maintained in controlled conditions (24° C., 12-h light, 12-h dark schedule). Animals were euthanized, and the testes were either immediately used for organ culture or intratesticular fluid collection, or testes and adrenal glands were snap-frozen for sectioning. Bolus injections with water or indicated doses of TV peptides were performed after administering isofluorane anesthesia. Rats were injected with either water or the indicated dose of TV fusion peptide. When FGIN-1-27 (Sigma-Aldrich, St. Louis, Mo.) was used, 8.5 μg in 50 μl (390 μM) of the compound in 1% DMSO solution containing Tween-20™ was injected into one of the testes of 68-72 day old Sprague-Dawley rats. Animals were incubated in standard conditions for 2 hrs. Surgeries were performed on 60- to 64-day-old rats bolus injection of water or TV peptides. Alzet mini-osmotic pumps releasing 75 ng of filled with water or a TV peptide or water over a course of 24 hrs was surgically implanted in the abdomen. The pumps were connected to a polyethylene catheter tubing (Alzet) and directed to the injected testis. The pump released 75 ng TV peptide to the testis over a course of 24 hrs at the rate of 1 μl/hour. GnRH antagonist, Cetrorelix™ (Sigma Aldrich) was injected into 59-day-old rats intraperitoneally (i.p.) at 0.4 mg/animal/day for 0-4 days (Horvath et al. 2004). Animal dissection was performed after CO2 anesthesia. Cardiac puncture was used for blood collection, and further centrifugation yielded serum separation. Testes were dissected and either decapsulated for intratesticular fluid collection or snap-frozen for sectioning.
To further assess the link between VDAC1 and TSPO function in vivo, the acute effect of TVS167 was compared to that of a well characterized high affinity TSPO drug ligand, N,N-dihexyl-2-(4-fluorophenyl)indole-3-acetamide (FGIN-1-27) (Perheentupa et al. 2009), in the absence of LH signaling. Sprague-Dawley rats of 68-72 days old were given an i.p. injected of either H2O or 0.4 mg Cetrorelix™ for 0-4 days. On day 4, a bolus intratesticular injection of 8.5 μg FGIN-1-27 or its solvent (control) was given to one testis per animal. To assess the acute effect of this TSPO drug ligand on steroidogenesis intratesticular and circulating T levels were measured after 2 hrs.

[1] = system: adult Sprague-Dawley rats; experiment: Cetrorelix i.p. injection, suppression of T and LH; assay type: in vivo, rat
Protocol: as §1, with “The pump released 75 ng TV peptide to the testis over a course of 24 hrs at the rate of 1 μl/hour. GnRH antagonist, Cetrorelix™ (Sigma Aldrich) was injected into 59-day-old rats intraperitoneally (i.p.) at 0.4 mg/animal/day for 0-4 days (Horvath et al. 2004). Animal dissection was performed after CO2 anesthesia. Cardiac puncture was used for blood collection, and further centrifugation yielded serum separation. Testes were dissected and either decapsulated for intratesticular fluid collection or snap-frozen for sectioning.” left out

[2] = system: MA-10 mouse Leydig tumor cells; experiment: Progesterone production by MA-10 cells after 8-Br-cAMP (RIA); assay type: cell-based; details: 10 μM 19-Atriol with TVS167, 8-Br-cAMP 120 min
Protocol: Cell culture, treatments, and steroid measurement. MA-10 mouse Leydig tumor cells were maintained in DMEM/Ham's nutrient mixture F12 (Gibco, Burlington, ON) supplemented with 5% fetal bovine serum, 2.5% hoarse serum, and 1% penicillin and streptomycin at 37° C. and 3.7% CO2. Cells were incubated in serum-free cell culture media supplemented with 1 mM 8-Bromo-cAMP (Enzo Biosciences, Farmingdale, N.Y.) or […] (50 ng/ml) hCG for 15, 30, 60, and 120 min or as indicated. Human NCL-H295R cells were maintained in DMEM/F12 media supplemented with 2.5% Ultroser G (Pall Biospera, Mississauga, ON), 1% penicillin/streptomycin (Invitrogen, Carlsbad, Calif.), and 1% ITS+ Premix (BD Biosciences, Franklin Lakes, N.J.) in a humidified chamber at 37° C. and 5% CO2.
Experiments involving the TV peptides included 1×10^3 MA-10 or NCL-H295R cells, which were initially cultured for 24 hrs. Serum-free media were supplemented with 250 nM TV fusion peptides, and cells were incubated for 90 min after optimization. […]
Progesterone or testosterone levels were measured with specific RIAs in triplicate using commercial anti-sera from rabbit and sheep, respectively (MP Biomedicals, Santa Ana, Calif.). Protein levels in MA-10 cell lysates were determined with the Bradford dye assay (Bio-Rad). LH and corticosterone levels were measured with rat-specific ELISA kits (CUSABIO, Wuhan, China).

With `CCCCCCN(CCCCCC)C(=O)Cc1c(-c2ccc(F)cc2)[nH]c2ccccc12` [FGIN-1-27, N,N-dihexyl-2-(4-fluorophenyl)indole-3-acetamide] the “intratesticular T levels” value (Sprague-Dawley rats; Cetrorelix-treated rats) was “significant increase”, the “plasma T levels” value (Sprague-Dawley rats; Cetrorelix-treated rats) was “increased” and the “intratesticular T levels” value (Sprague-Dawley rats; control (H2O i.p.) rats) was “significant increase”. For the same molecule, the “plasma T levels” value (Sprague-Dawley rats; control (H2O i.p.) rats) was “increased only in the Cetrorelix-treated animals” and the “acute T formation in vivo compared with TVS167” value (Sprague-Dawley rats; control and Cetrorelix-treated rats) was “to a lesser extent that TVS167”.

For `CC(=O)N[C@H](Cc1ccc2ccccc2c1)C(=O)N[C@H](Cc1ccc(Cl)cc1)C(=O)N[C@H](Cc1cccnc1)C(=O)N[C@@H](CO)C(=O)N[C@@H](Cc1ccc(O)cc1)C(=O)N[C@H](CCCNC(N)=O)C(=O)N[C@@H](CC(C)C)C(=O)N[C@@H](CCCNC(=N)N)C(=O)N1CCC[C@H]1C(=O)N[C@H](C)C(N)=O` [Cetrorelix] (Ac-[d2Nal][dPhe(4-Cl)][d3Pal]SY[dCit]LRP[dA]-NH2), the “T levels in testes and serum” value ([1]; 0.4 mg/day i.p. for four days) was “completely suppressed; also recorded: blocked” and the LH release ([1]; adult rats) was “blocked LH release”.

For `C[C@]12CC[C@H]3[C@@H](CC=C4C[C@@H](O)CC[C@@]43CO)[C@@H]1CC[C@@H]2O` [19-Atriol], the “effect on TVS167-stimulated steroid formation” value [2] was “stimulatory effect of TVS167 on steroid formation was blocked”.
